# Assay results reported in patent publication US20060014733A1, “Histamine-3 agonists and antagonists” (Pfizer Inc, priority 2004, published 2006).
# pKi: −log10 of the molar value.
# Biological target: T1, rat histamine H3 receptors (Rattus norvegicus, UniProt Q9QYN8)
# T1 construct: Frozen rat frontal brain or frozen human post-mortem frontal brain is homogenized; from tissue; host or cells: rat frontal brain membranes
# Test: Rat H3 binding (3H-N-methylhistamine displacement, rat frontal brain membranes)
# Details: radioligand 1 nM 3H-N-methylhistamine, 1 hour incubation
# Method: The in vitro affinity of the compounds in the present invention at the rat or human histamine H3 receptors can be determined according to the following procedure. Frozen rat frontal brain or frozen human post-mortem frontal brain is homogenized in 20 volumes of cold 50 mM Tris HCl containing 2 mM MgCl2 (pH to 7.4 at 4 degrees C.). The homogenate is then centrifuged at 45,000 G for 10 minutes. The supernatant is decanted and the membrane pellet re-suspended by Polytron in cold 50 mM Tris HCl containing 2 mM MgCl2 (pH to 7.4 at 4 degrees C.) and centrifuged again. The final pellet is re-suspended in 50 mM Tris HCl containing 2 mM MgCl2 (pH to 7.4 at 25 degrees C.) at a concentration of 12 mg/mL. Dilutions of compounds are made in 10% DMSO/50 mM Tris buffer (pH 7.4) (at 10×final concentration, so that the final DMSO concentration is 1%). Incubations are initiated by the addition of membranes (200 microliters) to 96 well V-bottom polypropylene plates containing 25 microliters of drug dilutions and 25 microliters of radioligand (1 nM final concentration ^3H-N-methylhistamine). After a 1 hour incubation, assay samples are rapidly filtered through Whatman GF/B filters and rinsed with ice-cold 50 mM Tris buffer (pH 7.4) using a Skatron cell harvester. Radioactivity is quantified using a BetaPlate scintillation counter.
# T1 sequence (Q9QYN8 whole entry): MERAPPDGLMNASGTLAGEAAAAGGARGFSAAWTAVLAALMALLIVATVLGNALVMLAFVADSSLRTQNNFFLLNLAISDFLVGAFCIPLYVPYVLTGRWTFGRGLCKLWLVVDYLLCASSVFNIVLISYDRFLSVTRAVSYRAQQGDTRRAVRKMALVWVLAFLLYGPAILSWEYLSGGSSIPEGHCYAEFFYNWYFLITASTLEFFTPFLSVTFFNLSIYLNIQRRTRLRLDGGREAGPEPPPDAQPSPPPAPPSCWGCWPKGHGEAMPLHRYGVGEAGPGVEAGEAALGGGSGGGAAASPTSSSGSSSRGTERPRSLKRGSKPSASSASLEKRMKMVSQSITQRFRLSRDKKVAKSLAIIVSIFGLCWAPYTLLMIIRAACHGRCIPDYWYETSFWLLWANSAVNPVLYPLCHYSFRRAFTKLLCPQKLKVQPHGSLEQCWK
row,Structure (SMILES),pKi
1,"CN(C)[C@@H]1CCN(Cc2ccc(-c3ccc(S(C)(=O)=O)cc3)cc2)C1 [Example 43, (R)-[1-(4′-Methanesulfonyl-biphenyl-4-ylmethyl)-pyrrolidin-3-yl]-dimethylamine]",7.14
2,"CC(=O)Nc1cccc(-c2ccc(CN3CC[C@@H](N(C)C)C3)cc2)c1 [Example 45, (R)-N-[4′-(3-Dimethylamino-pyrrolidin-1-ylmethyl)-biphenyl-3-yl]-acetamide]",7.12
3,"CN(C)[C@H]1CCN(Cc2ccc(-c3ccc(S(C)(=O)=O)cc3)cc2)C1 [Example 42, (S)-[1-(4′-Methanesulfonyl-biphenyl-4-ylmethyl)-pyrrolidin-3-yl]-dimethylamine]",7.26
4,"CN(C)[C@@H]1CCN(Cc2ccc(C3CCNCC3)cc2)C1 [Example 46, (R)-[1-(4-piperidin-4-ylbenzyl)-pyrrolidin-3-yl]-dimethylamine]",6.87
5,CN(C)[C@H]1CCN(Cc2ccc(C3CCNCC3)cc2)C1 [Example 47],7.48
6,"CC(=O)Nc1cccc(-c2ccc(CN3CC[C@H](N(C)C)C3)cc2)c1 [Example 44, (S)-N-[4′-(3-Dimethylamino-pyrrolidin-1-ylmethyl)-biphenyl-3-yl]-acetamide]",6.86
